Laboratory results as given in patent US20240247080A1, “GLP1/GIP/NPY2 RECEPTOR TRIPLE AGONISTS” (Boehringer Ingelheim International GmbH, priority 2022, published 2024).
Read-outs that look alike come from different tables or passages of the source. Starred links: 1 amine or outer side, 2 acyl side, 3 side chain; linkers in the order of their positions; H or OH if unused. Non-standard residues stand in square brackets, D forms with d. Groups on a side chain read outwards from the residue. *: point of attachment. C20 diacid = O=C(O)CCCCCCCCCCCCCCCCCCC(=O)*; C18 diacid = O=C(O)CCCCCCCCCCCCCCCCC(=O)*; γGlu = O=C(O)[C@H](CCC(=O)[*:2])N[*:1]; εLys = N[C@@H](CCCCN[*:1])C(=O)[*:2]; β3hQ = NC(=O)CC[C@H](N)CC(=O)O; Aib = CC(C)(N)C(=O)O; Ahx = NCCCCCC(=O)O

Legend:
Format in all cases: cell-based
Settings in all cases: CreLuc reporter gene assay
hGLP1R = molecular target: T1, hGLP1R (Homo sapiens, UniProt P43220); assay: hGLP1R CreLuc reporter gene assay in 0.5% and 100% plasma
T1 construct: expressed in transfected cells; host or cells: HEK-293 cells carrying a CRE-luciferase reporter gene
Method in brief: (§1)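 Agonist EC50s came from 8-concentration curves over four decades, fitted by non-linear variable-slope regression of CRE-driven luciferase luminescence. Cells were exposed 4 h at 37 °C, in buffer with 0.5% human plasma or in 100% plasma; GIPR was expressed in CHO cells, GLP-1R and NPY2R in HEK cells.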

hNPY2R = molecular target: T2, hNPY2R (Homo sapiens, UniProt P49146); assay: hNPY2R CreLuc reporter gene assay in 0.5% and 100% plasma
T2 construct: expressed in transfected cells; host or cells: HEK-293 cells carrying a CRE-luciferase reporter gene
T2 sequence (P49146 1-381): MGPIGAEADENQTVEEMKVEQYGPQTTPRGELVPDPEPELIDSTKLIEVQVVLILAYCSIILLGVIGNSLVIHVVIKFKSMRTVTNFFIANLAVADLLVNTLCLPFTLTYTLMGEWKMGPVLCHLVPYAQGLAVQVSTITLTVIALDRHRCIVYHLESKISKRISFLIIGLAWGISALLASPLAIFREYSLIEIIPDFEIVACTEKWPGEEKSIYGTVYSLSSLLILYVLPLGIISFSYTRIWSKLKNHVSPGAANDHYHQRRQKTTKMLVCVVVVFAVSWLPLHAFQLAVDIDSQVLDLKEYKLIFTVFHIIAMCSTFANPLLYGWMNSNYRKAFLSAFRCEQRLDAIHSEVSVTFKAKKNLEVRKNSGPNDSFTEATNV
Method in brief: as §1

hGIPR = molecular target: T3, hGIPR (Homo sapiens, UniProt P48546); assay: hGIPR CreLuc reporter gene assay in 0.5% and 100% plasma
T3 construct: expressed in transfected cells; host or cells: CHO cells carrying a CRE-luciferase reporter gene
T3 sequence (P48546 22-466): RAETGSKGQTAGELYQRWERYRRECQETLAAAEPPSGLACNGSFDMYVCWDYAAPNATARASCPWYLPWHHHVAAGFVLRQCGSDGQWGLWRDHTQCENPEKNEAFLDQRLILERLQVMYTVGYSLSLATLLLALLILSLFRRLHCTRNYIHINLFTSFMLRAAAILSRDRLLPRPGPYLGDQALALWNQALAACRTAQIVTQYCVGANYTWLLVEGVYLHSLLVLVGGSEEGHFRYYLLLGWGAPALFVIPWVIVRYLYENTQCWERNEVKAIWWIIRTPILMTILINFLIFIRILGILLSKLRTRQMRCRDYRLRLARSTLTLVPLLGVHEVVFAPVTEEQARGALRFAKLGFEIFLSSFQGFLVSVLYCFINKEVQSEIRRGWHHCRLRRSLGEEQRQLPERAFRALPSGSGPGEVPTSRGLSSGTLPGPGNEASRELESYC
Method in brief: as §1

[1] = 0.5% human plasma, read-out: hGLP1R 0.5% hP
[2] = 100% human plasma, read-out: hNPY2R 100% hP
[3] = 0.5% human plasma, read-out: hGIPR 0.5% hP
[4] = 0.5% human plasma, read-out: hNPY2R 0.5% hP
[5] = 100% human plasma, read-out: hGIPR 100% hP
[6] = 100% human plasma, read-out: hGLP1R 100% hP

T1 sequence (P43220 24-463): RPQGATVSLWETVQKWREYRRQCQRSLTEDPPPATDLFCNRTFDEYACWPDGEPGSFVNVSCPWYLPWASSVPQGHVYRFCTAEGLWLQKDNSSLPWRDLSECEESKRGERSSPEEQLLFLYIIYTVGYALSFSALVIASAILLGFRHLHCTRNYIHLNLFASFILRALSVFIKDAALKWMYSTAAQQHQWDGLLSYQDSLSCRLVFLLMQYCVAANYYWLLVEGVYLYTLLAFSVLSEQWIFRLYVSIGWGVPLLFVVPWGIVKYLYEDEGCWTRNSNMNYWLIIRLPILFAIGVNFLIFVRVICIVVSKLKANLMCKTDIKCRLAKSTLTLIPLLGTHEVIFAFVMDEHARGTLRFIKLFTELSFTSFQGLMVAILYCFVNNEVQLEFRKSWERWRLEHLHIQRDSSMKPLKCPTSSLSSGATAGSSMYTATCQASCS

Row | EC50 (hGLP1R; [1]) [nM] | EC50 (hNPY2R; [2]) [nM] | EC50 (hGIPR; [3]) [nM] | EC50 (hNPY2R; [4]) [nM] | EC50 (hGIPR; [5]) [nM] | EC50 (hGLP1R; [6]) [nM] | Molecule
1 | 0.2 | 122 | 0.36 | – | – | – | H-Y[Aib]EGTFTSDYSI[Aib]LEKQAQ[Aib]AFVEWLIK([Ahx-γGlu-γGlu-γGlu-γGlu-γGlu-γGlu-C18 diacid])GGPSEGASLRHYYNWLTRQRY-NH2 [Compound 303, Y-Aib-E-G-T-F-T-S-D-Y-S-I-Aib-L-E-K-Q-A-Q-Aib-A-F-V-E-W-L-I-K(1,3)-GGPSEGASLRHYYNWLTRQRY-NH2.C18DA-gGlu-gGlu-gGlu-gGlu-gGlu-gGlu-AHX(1,2)]
2 | 0.11 | – | 0.11 | > 99.9 | 0.77 | – | H-Y[Aib]EGTFTSDYSI[Aib]LEKQAQ[Aib]AFVQWLIK([εLys-γGlu-γGlu-γGlu-γGlu-γGlu-γGlu-C20 diacid])GGPSEGASLRHYYNWLTR[β3hQ]RY-NH2 [Compound 186, Y-Aib-E-G-T-F-T-S-D-Y-S-I-Aib-L-E-K-Q-A-Q-Aib-A-F-V-Q-W-L-I-K(1,3)-G-G-P-S-E-G-A-S-L-R-H-Y-Y-N-W-L-T-R-bHGln-R-Y-NH2.C20DA-gGlu-gGlu-gGlu-gGlu-gGlu-gGlu-eLys(1,2)]
3 | 0.13 | 35.2 | 0.23 | – | 1.43 | – | CC[C@H](C)[C@H](NC(=O)[C@H](CC(C)C)NC(=O)[C@H](Cc1c[nH]c2ccccc12)NC(=O)[C@H](CCC(=O)O)NC(=O)[C@@H](NC(=O)[C@H](Cc1ccccc1)NC(=O)[C@H](C)NC(=O)C(C)(C)NC(=O)[C@H](CCC(N)=O)NC(=O)[C@H](C)NC(=O)[C@H](CCC(N)=O)NC(=O)[C@H](CCCCN)NC(=O)[C@H](CCC(=O)O)NC(=O)[C@H](CC(C)C)NC(=O)C(C)(C)NC(=O)[C@@H](NC(=O)[C@H](CO)NC(=O)[C@H](Cc1ccc(O)cc1)NC(=O)[C@H](CC(=O)O)NC(=O)[C@H](CO)NC(=O)[C@@H](NC(=O)[C@H](Cc1ccccc1)NC(=O)[C@@H](NC(=O)CNC(=O)[C@H](CCC(=O)O)NC(=O)C(C)(C)NC(=O)[C@@H](N)Cc1ccc(O)cc1)[C@@H](C)O)[C@@H](C)O)[C@@H](C)CC)C(C)C)C(=O)N[C@@H](CCCCNC(=O)[C@@H](N)CCCCNC(=O)CC[C@H](NC(=O)CC[C@H](NC(=O)CC[C@H](NC(=O)CC[C@H](NC(=O)CC[C@H](NC(=O)CC[C@H](NC(=O)CCCCCCCCCCCCCCCCCCC(=O)O)C(=O)O)C(=O)O)C(=O)O)C(=O)O)C(=O)O)C(=O)O)C(=O)NCC(=O)NCC(=O)N1CCC[C@H]1C(=O)N[C@@H](CO)C(=O)N[C@@H](CO)C(=O)NCC(=O)N[C@@H](CCC(N)=O)C(=O)N[C@@H](CO)C(=O)N[C@@H](CC(C)C)C(=O)N[C@@H](CCCNC(=N)N)C(=O)N[C@@H](Cc1c[nH]cn1)C(=O)N[C@@H](Cc1ccc(O)cc1)C(=O)N[C@@H](Cc1ccc(O)cc1)C(=O)N[C@@H](CC(N)=O)C(=O)N[C@@H](Cc1c[nH]c2ccccc12)C(=O)N[C@@H](CC(C)C)C(=O)N[C@H](C(=O)N[C@@H](CCCNC(=N)N)C(=O)N[C@@H](CCC(N)=O)C(=O)N[C@@H](CCCNC(=N)N)C(=O)N[C@@H](Cc1ccc(O)cc1)C(N)=O)[C@@H](C)O [Compound 84, Y-Aib-E-G-T-F-T-S-D-Y-S-I-Aib-L-E-K-Q-A-Q-Aib-A-F-V-E-W-L-I-K(1,3)-GGPSSGQSLRHYYNWLTRQRY-NH2.C20DA-gGlu-gGlu-gGlu-gGlu-gGlu-gGlu-eLys(1,2)]
4 | – | – | 0.98 | 13 | – | 14.2 | H-Y[Aib]EGTFTSDYSI[Aib]LEAAKQ[Aib]AFVEWLIK([εLys-γGlu-γGlu-γGlu-γGlu-γGlu-γGlu-C20 diacid])GGPSSGASLRHYYNWLTRQRY-NH2 [Compound 25, Y-Aib-E-G-T-F-T-S-D-Y-S-I-Aib-L-E-A-A-K-Q-Aib-A-F-V-E-W-L-I-K(1,3)-GGPSSGASLRHYYNWLTRQRY-NH2.C20DA-gGlu-gGlu-gGlu-gGlu-gGlu-gGlu-eLys(1,2)]
5 | 0.13 | 24.6 | 0.14 | – | 1.18 | – | H-Y[Aib]EGTFTSDYSI[Aib]LEKQAQ[Aib]AFVEWLIK([εLys-γGlu-γGlu-γGlu-γGlu-γGlu-γGlu-C20 diacid])GGPSSGASVRHYYNWLTRQRY-NH2 [Compound 117, Y-Aib-E-G-T-F-T-S-D-Y-S-I-Aib-L-E-K-Q-A-Q-Aib-A-F-V-E-W-L-I-K(1,3)-GGPSSGASVRHYYNWLTRQRY-NH2.C20DA-gGlu-gGlu-gGlu-gGlu-gGlu-gGlu-eLys(1,2)]
6 | 0.08 | – | 0.1 | 53.4 | 0.62 | 1.13 | H-Y[Aib]EGTFTSDYSI[Aib]LEKQAQ[Aib]AFVEWLIK([εLys-γGlu-γGlu-γGlu-γGlu-γGlu-γGlu-C20 diacid])GGPSSGAS[Aib]RHYYNWLTRQR[dY]-NH2 [Compound 74, Y-Aib-E-G-T-F-T-S-D-Y-S-I-Aib-L-E-K-Q-A-Q-Aib-A-F-V-E-W-L-I-K(1,3)-G-G-P-S-S-G-A-S-Aib-R-H-Y-Y-N-W-L-T-R-Q-R-DTyr-NH2.C20DA-gGlu-gGlu-gGlu-gGlu-gGlu-gGlu-eLys(1,2)]
